From US20240218022A1, “ANTI-VISTA MACROCYCLIC PEPTIDES AND COMPOSITIONS” (BRISTOL-MYERS SQUIBB COMPANY, priority 2022, published 2024)
Starred links: 1 amine or outer side, 2 acyl side, 3 side chain; linkers in the order of their positions; H or OH if unused. Positions of bridges follow the written chain, without caps; N, C: chain ends. Non-standard residues stand in square brackets, D forms with d. Residues, ends and D or L forms follow the SMILES beside them. Phe(3-Me) = Cc1cccc(C[C@H](N)C(=O)O)c1; γGlu = O=C(O)[C@H](CCC(=O)[*:2])N[*:1]; 2Nal = N[C@@H](Cc1ccc2ccccc2c1)C(=O)O; NMeL = CN[C@@H](CC(C)C)C(=O)O; Ahp(2) = CCCCC[C@H](N)C(=O)O; NMeNle = CCCC[C@H](NC)C(=O)O; Tle = CC(C)(C)[C@H](N)C(=O)O; NHexGly = CCCCCCNCC(=O)O; Nle = CCCC[C@H](N)C(=O)O; Aun = NCCCCCCCCCCC(=O)O; AEEA = NCCOCCOCC(=O)O

Biological target: T1, mouse VISTA (mVISTA) (Mus musculus, UniProt Q9D659)
T1 construct: expressed in transfected cells; host or cells: Human embryonic kidney 293T cells
T1 sequence (Q9D659 33-308): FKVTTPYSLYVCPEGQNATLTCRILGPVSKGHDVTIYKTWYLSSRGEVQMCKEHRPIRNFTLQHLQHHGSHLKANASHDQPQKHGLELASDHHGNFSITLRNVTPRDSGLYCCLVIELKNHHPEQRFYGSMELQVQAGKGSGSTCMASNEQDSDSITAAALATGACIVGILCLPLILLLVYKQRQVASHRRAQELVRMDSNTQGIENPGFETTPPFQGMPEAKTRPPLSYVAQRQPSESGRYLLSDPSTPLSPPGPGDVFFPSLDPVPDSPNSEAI
Test: Cell-Based Binding High-Content Assay For mVISTA (HC CBA mVISTA)
Conditions: read-out: HC CBA mVISTA IC50
Procedure, shortened: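 Read-out: Alexa 647–streptavidin signal imaged on fixed, Hoechst-stained mVISTA-293T cells, with IC50 taken from a four-parameter logistic curve. Compounds competed with 2 nM biotinylated peptide for 30 min at room temperature, tested under both no-wash and wash (1 h compound, media exchange, 1 h) formats.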

Row | IC50 | Compound
1 | 41.5 nM | CCCCCCN1CC(=O)N[C@@H](Cc2ccc(O)cc2)C(=O)N[C@@H](CCCC)C(=O)N[C@@H](CC(N)=O)C(=O)N[C@@H](CCCNC(=N)N)C(=O)N(C)[C@@H](CCCC)C(=O)N[C@@H](CCCCC)C(=O)N2CCC[C@H]2C(=O)N[C@@H](C(C)(C)C)C(=O)N[C@@H](CO)C(=O)N[C@H](C(=O)NCCOCCOCC(=O)N[C@@H](CCC(=O)NCCOCCOCC(=O)NCCCCCCCCCCC(=O)O)C(=O)O)CSCC(=O)N[C@@H](Cc2ccc3ccccc3c2)C(=O)N[C@@H](Cc2ccc(O)cc2)C(=O)N[C@@H](CC(=O)O)C1=O [compound 2227] ({CH2CO}-[2Nal]YD[NHexGly]Y[Nle]NR[NMeNle][Ahp(2)]P[Tle]SC[AEEA][γGlu][AEEA][Aun]-OH; thioether N-14)
2 | 38.8 nM | CCCCCCN1CC(=O)N[C@@H](Cc2ccc(O)cc2)C(=O)N[C@@H](CCCC)C(=O)N[C@@H](CC(N)=O)C(=O)N[C@@H](CCCNC(=N)N)C(=O)N(C)[C@@H](CCCC)C(=O)N[C@@H](CCCCC)C(=O)N2CCC[C@H]2C(=O)N[C@@H](C(C)(C)C)C(=O)N[C@@H](CO)C(=O)N[C@H](C(=O)NCCOCCOCC(=O)N[C@@H](CCC(=O)NCCOCCOCC(=O)NCCCCCCCCCCC(=O)O)C(=O)O)CSCC(=O)N[C@@H](Cc2cccc(C)c2)C(=O)N[C@@H](Cc2c[nH]c3ccccc23)C(=O)N[C@@H](CC(=O)O)C1=O [compound 2228] ({CH2CO}-[Phe(3-Me)]WD[NHexGly]Y[Nle]NR[NMeNle][Ahp(2)]P[Tle]SC[AEEA][γGlu][AEEA][Aun]-OH; thioether N-14)
3 | 33.1 nM | CCCCCCN1CC(=O)N[C@@H](Cc2ccc(O)cc2)C(=O)N[C@@H](CCCC)C(=O)N[C@@H](CC(N)=O)C(=O)N[C@@H](CCCNC(=N)N)C(=O)N(C)[C@@H](CC(C)C)C(=O)N[C@@H](CCCCC)C(=O)N2CCC[C@H]2C(=O)N[C@@H](C(C)(C)C)C(=O)N[C@@H](CO)C(=O)N[C@H](C(=O)NCCOCCOCC(=O)N[C@@H](CCC(=O)NCCOCCOCC(=O)NCCCCCCCCCCC(=O)O)C(=O)O)CSCC(=O)N[C@@H](Cc2ccccc2)C(=O)N[C@@H](Cc2c[nH]c3ccccc23)C(=O)N[C@@H](CC(=O)O)C1=O [compound 2229] ({CH2CO}-FWD[NHexGly]Y[Nle]NR[NMeL][Ahp(2)]P[Tle]SC[AEEA][γGlu][AEEA][Aun]-OH; thioether N-14)
4 | 28.4 nM | CCCCCCN1CC(=O)N[C@@H](Cc2ccc(O)cc2)C(=O)N[C@@H](CC(C)C)C(=O)N[C@@H](CC(N)=O)C(=O)N[C@@H](CCCNC(=N)N)C(=O)N[C@@H](CC(C)C)C(=O)N[C@@H](CCCCC)C(=O)N2CCC[C@H]2C(=O)N[C@@H](C(C)(C)C)C(=O)N[C@@H](CO)C(=O)N[C@H](C(=O)NCCOCCOCC(=O)N[C@@H](CCC(=O)NCCOCCOCC(=O)NCCCCCCCCCCC(=O)O)C(=O)O)CSCC(=O)N[C@@H](Cc2ccccc2)C(=O)N[C@@H](Cc2c[nH]c3ccccc23)C(=O)N[C@@H](CC(=O)O)C1=O [compound 2230] ({CH2CO}-FWD[NHexGly]YLNRL[Ahp(2)]P[Tle]SC[AEEA][γGlu][AEEA][Aun]-OH; thioether N-14)
5 | 42.5 nM | CCCCCCN1CC(=O)N[C@@H](Cc2ccc(O)cc2)C(=O)N[C@@H](CC(C)C)C(=O)N[C@@H](CC(N)=O)C(=O)N[C@@H](CCCNC(=N)N)C(=O)N[C@@H](CC(C)C)C(=O)N[C@@H](CCCCC)C(=O)N2CCC[C@H]2C(=O)N[C@@H](C(C)(C)C)C(=O)N[C@@H](C(C)C)C(=O)N[C@H](C(=O)NCCOCCOCC(=O)N[C@@H](CCC(=O)NCCOCCOCC(=O)NCCCCCCCCCCC(=O)O)C(=O)O)CSCC(=O)N[C@@H](Cc2ccccc2)C(=O)N[C@@H](Cc2c[nH]c3ccccc23)C(=O)N[C@@H](CC(=O)O)C1=O [compound 2231] ({CH2CO}-FWD[NHexGly]YLNRL[Ahp(2)]P[Tle]VC[AEEA][γGlu][AEEA][Aun]-OH; thioether N-14)
